Values joined by “and” are separate entries in the source; they are usually repeats but may differ in a detail not shown here. Equal values may be shown once.

The melting point is the temperature of the solid-liquid transition.

Series [1] has as its system Sprague-Dawley rats. Briefly: Conditioned Emotional Response (CER) assay. In kind it is in vivo. Conditions: for Total number lever press: 40 min test session; for Total number lever press / Suppression ratio (SR): mean±SEM; for Suppression ratio (SR): at least 10 rats, *p<0.05 vs vehicle; for Efficacy in the CER assay (effect on SR), in words: rat, in vivo; for Magnitude of the SR effect compared with diazepam: diazepam 2 mg/kg i.p. The method, then: Male, Sprague-Dawley rats of approximate body weight 350-450 g were placed on a restricted food diet (45 min free access per day) and trained over a 1-2 week period to press a lever for food reward (45 mg food pellet). […] Test session length was for a 40 min test period, and test sessions were run 5 days/week. Once stable response rates were attained, 2 periods of a 2 min light and tone cue (conditioning stimulus, CS) was introduced into the test session. The 2 min CS was terminated by a 0.5 s unavoidable footshock of 0.3-0.8 mA intensity (UCS). The first CS-UCS was at approximately 10 min (range 5-15 min) and the second CS-UCS pairing at approximately 30 min (range 25-35 min) within the test session. On drug test days, and occasional training days, footshock was not delivered. The number of lever presses recorded during the two 2 min CS periods (response A), and the number of lever presses recorded in the 2 min periods immediately prior to the two CS periods (response B) were measured and a suppression ratio (SR) was calculated according to the formula (A/A+B). Thus a SR of 0 reflects no responding during the CS periods, i.e. a complete suppression of lever pressing for food by the CS, and a SR of 0.5 reflects equivalent responding during both the CS and 2 min period prior to CS, i.e. no suppression of lever pressing for food by the CS. Thus in drug untreated animals, SR value was typically 0-0.1 and established anti-anxiety agents such as diazepam increased this value to 0.4-0.5 (for literature examples see Stanhope and Dourish (1996) Psychopharmacol. 128: 293-303; Mirza et al (2005) Psychopharmacol. 180: 159-168). In addition to SR, the total number of lever presses emitted by the animals over the 40 min test session was measured.
Drug testing was conducted according to a repeated measures design, with each animal receiving each dose of drug treatment or vehicle control in a balanced design. Typically drug testing was conducted on Tuesdays and Fridays, with the animals drug untreated but otherwise run for baseline purposes. In each experiment a standard dose of diazepam (2 mg/kg i.p) was included as a positive control.

Series [2] deals with CD-1 mice. Briefly: Marble Burying Assay. In kind it is in vivo. The conditions noted are these: for Number of marbles buried: 22 marbles, 30 min, mean±SEM, at least 8 mice. The method, then: (§1) Male, experimentally naïve CD-1 mice of body weight range 25-35 g were used in these studies. Following a pretreatment with test drug or vehicle control the animals were singly placed within a Perspex chamber of dimension (48 cm×28 cm×20 cm; L×W×H) containing fresh sawdust bedding onto which 22 marbles were evenly spaced on the surface. After a 30 min period, the mice were removed and the number of marbles that were covered by at least ⅔rd by sawdust were counted as buried. Typically mice will bury a significant proportion of the marbles, probably to hide the potential threat posed by the marbles which represent a novel stimulus to the animal. […] One interpretation for this effect is that diazepam reduces the threat perceived to the animal by the close presence of the marbles (Broekkamp et al, 1986 Eur. J. Pharmacol. 126: 223-229; Nicolas et al, 2006 Eur. J. Pharmacol. 547; 106-115). In a separate group of sex, age and weight matched CD-1 mice, equivalent doses of test compound were evaluated on motor function using a fixed speed (16 r.p.m) rotorod assay. The best score from 3 attempts was recorded, with the maximum test duration of 60 s. Testing was conducted at 40 min post injection, i.e. approximate mid-point of the marble-burying assay.
Drug testing was run according to a between subjects design. […] The (S)-enantiomer of Lacosamide was ineffective in this assay.

The test system of series [3] is CD-1 mice. Nature of the series: Fixed speed (16 r.p.m) rotorod assay of motor function. In kind it is in vivo. Conditions: median of at least 4 mice, maximum score=60 s, 40 min post injection. The method, then:
as §1

Series [4] has as its system Sprague-Dawley rats. The conditions noted are these: drug untreated animals typically 0-0.1; literature examples; cited from earlier work.
The test system of series [5] is CD-1 mice. Conditions: at doses with no obvious effect on general motor function; literature; cited from earlier work.
The mark [6] stands for this setting: dose 2 (2 mg/kg i.p, positive control), 2 mg/kg.
The mark [7] stands for this setting: dose 3 (mg/kg), i.p or oral route.
Where [8] appears, read: dose 10 (mg/kg), i.p or oral route.
The mark [9] stands for this setting: dose 30 (mg/kg), i.p or oral route.

In turn, `CC(=O)NC(COC(F)F)C(=O)NCc1ccccc1` (stereo not drawn) showed a melting point of 173.3 °C.
Regarding `COC[C@H](NC(C)=O)C(=O)NCc1ccccc1` (single isomer, unassigned) [(S)-enantiomer of Lacosamide, reference compound], in the series on Sprague-Dawley rats [1] (dose 30 (mg/kg)), the “Total number lever press” value is reported as 1403 ± 158 and the “Suppression ratio (SR)” value is recorded as 0.06 ± 0.03. In addition, the “Efficacy in the CER assay (effect on SR), in words” value (“Efficacy … (effect on SR), in words” below) in the series on Sprague-Dawley rats [1] is given as “ineffective”. The “Efficacy in the marble burying assay, in words” value in the series with CD-1 mice [2] (mouse, in vivo) is on record as “ineffective”.
`CN1C(=O)CN=C(c2ccccc2)c2cc(Cl)ccc21` [Diazepam, reference compound]: the “Total number lever press” value in the series with Sprague-Dawley rats [1] (setting [6]) was 899 ± 146 and 1015 ± 155 and 1151 ± 138 and 1239 ± 183. The “Suppression ratio (SR)” value with Sprague-Dawley rats [1] (setting [6]) is 0.39 ± 0.04* and 0.44 ± 0.03* and 0.32 ± 0.07*. Also, the “Number of marbles buried” value in the series on CD-1 mice [2] (dose 0.3, i.p or oral route) is 12.6 ± 1.4; in the series with CD-1 mice [2] (dose 1, i.p or oral route) it was 9.4 ± 1.7; with CD-1 mice [2] (dose 2, i.p or oral route), 2.2 ± 1.2; in the series on CD-1 mice [2] (setting [7]), 2.0 ± 0.8. Besides, the “Efficacy in the marble burying assay, in words” value in the series on CD-1 mice [2] (mouse, in vivo) was “produced a similar profile”. Besides, the “Rotorod score” value in the series on CD-1 mice [3] (dose 0.3) is recorded as 60 s; with CD-1 mice [3] (dose 1), 60 s; in the series on CD-1 mice [3] (dose 3), 40 s. For the same molecule, the “SR value typically reached with established anti-anxiety agents” value in the series with Sprague-Dawley rats [4] is 0.4-0.5. Moreover, in the series with CD-1 mice [5], the “Effect of anti-anxiety drugs on marbles buried by mice, in words” value is on record as “reduce the number of marbles buried”.
As for `CC(=O)N[C@H](COC(F)F)C(=O)NCc1ccccc1` [Example 19.1, (2R)-2-(Acetylamino)-N-benzyl-3-(difluoromethoxy)propanamide], the melting point worked out at 186.9 °C. In the series with Sprague-Dawley rats [1], the “Magnitude of the SR effect compared with diazepam” value (“Magnitude … compared with diazepam” for short) is listed as “equivalent to diazepam” and the “Efficacy … (effect on SR), in words” value is recorded as “active in increasing the SR in a dose-related manner”. In the series on Sprague-Dawley rats [1] (dose 3 (mg/kg)), the “Total number lever press” value was 1169 ± 145 and the “Suppression ratio (SR)” value amounted to 0.16 ± 0.03. Moreover, in the series with Sprague-Dawley rats [1] (dose 10 (mg/kg)), the “Total number lever press” value is on record as 1093 ± 169 and the “Suppression ratio (SR)” value turned out to be 0.15 ± 0.05. In addition, in the series on Sprague-Dawley rats [1] (dose 30 (mg/kg)), the “Total number lever press” value worked out at 724 ± 135 and the “Suppression ratio (SR)” value is on record as 0.38 ± 0.04*. The “Number of marbles buried” value in the series with CD-1 mice [2] (setting [7]) is listed as 17.0 ± 1.1. For the same molecule, the “Number of marbles buried” value in the series on CD-1 mice [2] (setting [8]) is recorded as 9.7 ± 2.3. The “Number of marbles buried” value in the series on CD-1 mice [2] (setting [9]) came to 2.3 ± 2.0. Also, the “Efficacy in the marble burying assay, in words” value in the series on CD-1 mice [2] (mouse, in vivo) is given as “active in decreasing marble burying in a dose-related manner”. Further, the “Rotorod score” value with CD-1 mice [3] (dose 3) is given as 60 s. Besides, the “Rotorod score” value in the series with CD-1 mice [3] (dose 10) came to 60 s. For the same molecule, in the series on CD-1 mice [3] (dose 30), the “Rotorod score” value came out at 13 s.
In the case of `CC(=O)N[C@H](COC(F)F)C(=O)NCc1ccc(F)cc1` [Example 20.1, (2R)-2-(Acetylamino)-3-(difluoromethoxy)-N-(4-fluorobenzyl)propanamide], the melting point stood at 162.7 °C. Besides, in the series with Sprague-Dawley rats [1], the “Magnitude … compared with diazepam” value is reported as “equivalent to diazepam” and the “Efficacy … (effect on SR), in words” value is on record as “active in increasing the SR in a dose-related manner”. Also, in the series on Sprague-Dawley rats [1] (dose 3 (mg/kg)), the “Total number lever press” value stood at 1188 ± 95 and the “Suppression ratio (SR)” value is 0.17 ± 0.06. In addition, in the series on Sprague-Dawley rats [1] (dose 10 (mg/kg)), the “Total number lever press” value was 1170 ± 98 and the “Suppression ratio (SR)” value is reported as 0.28 ± 0.07*. Also, in the series with Sprague-Dawley rats [1] (dose 20 (mg/kg)), the “Total number lever press” value stood at 849 ± 78 and the “Suppression ratio (SR)” value is listed as 0.33 ± 0.06*. In the series with Sprague-Dawley rats [1] (dose 30 (mg/kg)), the “Total number lever press” value is given as 587 ± 84 and the “Suppression ratio (SR)” value was 0.43 ± 0.05*. Also, the “Number of marbles buried” value in the series with CD-1 mice [2] (setting [7]) is 15.0 ± 1.2. Also, in the series with CD-1 mice [2] (setting [8]), the “Number of marbles buried” value is recorded as 14.9 ± 0.9. The “Number of marbles buried” value in the series with CD-1 mice [2] (setting [9]) is on record as 10.3 ± 1.5. Besides, the “Efficacy in the marble burying assay, in words” value with CD-1 mice [2] (mouse, in vivo) was “active in decreasing marble burying in a dose-related manner”. Further, the “Rotorod score” value in the series with CD-1 mice [3] (dose 3) is reported as 60 s. Moreover, the “Rotorod score” value in the series with CD-1 mice [3] (dose 10) amounted to 60 s. Besides, the “Rotorod score” value in the series on CD-1 mice [3] (dose 30) is on record as 60 s.
As for `CC(=O)N[C@H](COC(F)F)C(=O)NCc1ccc(Cl)cc1` [Example 23.1, (2R)-2-(acetylamino)-N-(4-chlorobenzyl)-3-(difluoromethoxy)propanamide], the “Magnitude … compared with diazepam” value in the series with Sprague-Dawley rats [1] is “equivalent to diazepam”. Besides, the “Total number lever press” value in the series with Sprague-Dawley rats [1] (dose 3 (mg/kg)) was 1091 ± 169; in the series on Sprague-Dawley rats [1] (dose 10 (mg/kg)), 1034 ± 131; with Sprague-Dawley rats [1] (dose 30 (mg/kg)), 578 ± 79. The entries for the “Suppression ratio (SR)” value in the series with Sprague-Dawley rats [1] (dose 3 (mg/kg)), with Sprague-Dawley rats [1] (dose 10 (mg/kg)) and with Sprague-Dawley rats [1] (dose 30 (mg/kg)) were 0.09 ± 0.04, 0.17 ± 0.04* and 0.26 ± 0.04*, respectively. The “Efficacy … (effect on SR), in words” value with Sprague-Dawley rats [1] was “active in increasing the SR in a dose-related manner”. The “Number of marbles buried” value in the series with CD-1 mice [2] (setting [7]) was 15.8 ± 0.8; in the series with CD-1 mice [2] (setting [8]), 12.3 ± 1.2; in the series with CD-1 mice [2] (setting [9]), 2.0 ± 0.7. Besides, the “Efficacy in the marble burying assay, in words” value with CD-1 mice [2] (mouse, in vivo) is recorded as “active in decreasing marble burying in a dose-related manner”. For the same molecule, the “Rotorod score” value with CD-1 mice [3] (dose 3), in the series on CD-1 mice [3] (dose 10) and in the series with CD-1 mice [3] (dose 30) was 60 s throughout.
For `COC[C@@H](NC(C)=O)C(=O)NCc1ccccc1` [Lacosamide, (+)-(2R)-2-(acetylamino)-N-benzyl-3-methoxypropanamide, reference compound], the “Magnitude … compared with diazepam” value in the series on Sprague-Dawley rats [1] is recorded as “equivalent to diazepam”. The “Total number lever press” value is on record as 1166 ± 185 in the series on Sprague-Dawley rats [1] (dose 3 (mg/kg)), 1121 ± 138 with Sprague-Dawley rats [1] (dose 10 (mg/kg)) and 727 ± 123 with Sprague-Dawley rats [1] (dose 30 (mg/kg)). The “Suppression ratio (SR)” value in the series on Sprague-Dawley rats [1] (dose 3 (mg/kg)) is listed as 0.16 ± 0.07; with Sprague-Dawley rats [1] (dose 10 (mg/kg)) it was 0.18 ± 0.08; in the series on Sprague-Dawley rats [1] (dose 30 (mg/kg)), 0.36 ± 0.07*. Moreover, the “Efficacy in the CER assay (effect on SR value), in words” value with Sprague-Dawley rats [1] (doses 3-30 mg/kg i.p.) is “significantly increasing the SR value”. Further, the figures for the “Number of marbles buried” value in the series with CD-1 mice [2] (setting [7]), with CD-1 mice [2] (setting [8]) and in the series on CD-1 mice [2] (setting [9]) were 16.8 ± 0.8, 18.0 ± 0.7 and 12.4 ± 1.4, respectively. Moreover, the “Efficacy in the marble burying assay, in words” value with CD-1 mice [2] (oral doses of 3-30 mg/kg, compared to vehicle pretreated controls) is given as “significantly reducing the number of marbles buried”. In addition, the “Rotorod score” value in the series with CD-1 mice [3] (dose 3), in the series on CD-1 mice [3] (dose 10) and in the series with CD-1 mice [3] (dose 30) was 60 s throughout.

These data come from patent publication US8450336B2, “Use of D-serine derivatives for the treatment of anxiety disorders” (priority 2006, dated 2013).
